Experimental data: ChEMBL document CHEMBL1131695, “Design and synthesis of 6-(6-D-ribitylamino-2,4-dihydroxypyrimidin-5-yl)-1-hexyl phosphonic acid, a potent inhibitor of lumazine synthase” (Bioorg Med Chem Lett, 1999)

Assay: Inhibitory activity against lumazine synthase beta-60 capsids from Bacillus subtilis

Compound	Ki
O=P(O)(O)CCCCCCc1c(O)nc(O)nc1NC[C@H](O)[C@H](O)[C@H](O)CO	109 µM
O=C(Nc1c(O)nc(O)nc1NC[C@H](O)[C@H](O)[C@H](O)CO)c1ccc(S(=O)(=O)O)cc1	360 µM
O=C(Nc1c(O)nc(O)nc1NC[C@H](O)[C@H](O)[C@H](O)CO)c1ccc(S(=O)(=O)F)cc1	200 µM
O=C(O)CCCC(=O)Nc1c(O)nc(O)nc1NC[C@H](O)[C@H](O)[C@H](O)CO	430 µM
O=c1[nH]c(=O)c2nnn(C[C@H](O)[C@H](O)[C@H](O)CO)c2[nH]1	330 µM
O=c1[nH]c(=O)c2ncn(C[C@H](O)[C@H](O)[C@H](O)CO)c2[nH]1	470 µM
